Experimental findings from patent publication US11917993B2, “Antimicrobial compositions” (LANXESS Corporation, priority 2017, dated 2024) are described below.

Common to all, as to assay type: cell-based
Assay [1] has as its system K. aerogenes (ATCC 13048) and P. aeruginosa (ATCC 9027). The assay can be described thus: Challenge testing in tryptic soy broth at pH 9, time points from ASTM 2574. Conditions: pH 9, tryptic soy broth, up to one week. From the text: EP testing evaluates results at the 2-day, 7-day, 14-day, and 28-day marks. […] Strains of K. aerogenes (ATCC 13048) and P. aeruginosa (ATCC 9027) were utilized for this testing as they are commonly found in many products, including without limitation cosmetics and coatings. These organisms were challenged in the soy broth using the same methods described in the Challenge Testing Methodology section. The time points were selected from ASTM 2574, which is a method for evaluating antimicrobial efficacy in waterborne emulsion based paints.

Assay [2] deals with A. brasiliensis, C. albicans, E. coli, P. aeruginosa, S. aureus. The experiment in a line: Microbe challenge testing (USP 51 / EP) in tryptic soy broth growth media. Conditions: for effectiveness against microbe strains compared to no antimicrobial: 0.5 wt. %; for concentration achieving passing efficacy according to EP criteria / concentration achieving passing efficacy according to USP-51 criteria / efficacy versus bacteria, yeast and mold: tryptic soy broth; for efficacy versus bacteria, yeast and mold: 30 minutes to 28 days. From the text: (§1) One skilled in the art would be able to determine and utilize other industry testing methods useful to evaluate the efficacy of the present inventive compositions.
(§2) EP testing evaluates results at the 2-day, 7-day, 14-day, and 28-day marks.
(§3) For the European Pharmacopeia, a “pass” test for efficacy is a two-log reduction for bacteria after two days, three-log reduction for bacteria after […], two-log reduction for mold and yeast at 14 days and no increase at 28 days.
As such, it is an exceptional test medium and surrogate for evaluating antimicrobial efficacy, particularly for water-based or aqueous applications, although its value is not limited as such.
Product use applications involve a variety of pH conditions. […] In addition, antimicrobial compositions were added in amounts reflecting the wt. % used in an end use product, based on the total weight of all of the components of the end use product.
The efficacy of 3-phenyl propanol in tryptic soy broth growth media at pH 6.5 versus a number of microbes was evaluated according to methods described in the Challenge Testing Methodology section, above.
The efficacy of 3-phenyl propanol in tryptic soy broth growth media at pH 8.0 versus a number of microbes was evaluated according to methods described in the Challenge Testing Methodology section above.

For assay [3] the test system is unchanged. The assay can be described thus: Microbe challenge testing (USP 51 / EP) in model skin lotion of Table 1.
From the text: as §1, §2, §3
Skin Lotion Formulation Experimental—An exemplary, model skin lotion having a pH of 6.5 as set forth below in Table 1 was prepared for testing. The invention is not limited to use in this specific lotion but was used to illustrate the advantages of the invention.
Use of 3-phenyl propanol in the skin lotion formulation as set forth in Table 1 above was evaluated according to methods described in the Challenge Testing Methodology section above. In this efficacy screen study reflected in FIGS. 18 and 19, only the time intervals at 2-day and 14-day were measured, as these are critical time points for USP-51 and European Pharmacopeia. In this example, a triblend or tri-component antimicrobial composition was used comprising 3-phenyl propanol added to the model skin lotion containing both sodium benzoate and benzyl alcohol to enhance the antimicrobial activity at pH 6.5, a common pH for skin lotions.
In FIG. 21 and FIG. 22, use of 3-phenyl propanol in the skin lotion set forth in Table 1 above was evaluated according to methods described in the Challenge Testing Methodology section using the microbes identified in Example 1. In this example, 3-phenyl propanol was added to the model skin lotion with sodium benzoate at 0.5 wt. % to enhance the antimicrobial activity at pH 6.5. In these examples, 0.5 wt. % of 3-phenyl propanol in addition to 0.5 wt. % sodium benzoate was required to pass the EP 2 day and 14-day criteria.
In FIG. 23 and FIG. 24, use of 3-phenyl propanol in the skin lotion set forth in Table 1 above was evaluated according to methods described in the Challenge Testing Methodology section above, using the microbes identified in Example 1. In this example, 3-phenyl propanol was added to the model skin lotion with benzyl alcohol at 0.5 wt. % to enhance the antimicrobial activity at pH 8.0. In these examples, 0.5 wt. % of 3-phenyl propanol in addition to 0.5 wt. % benzyl alcohol was required to pass the EP 2 day and 14-day criteria.
Use of sodium benzoate and benzyl alcohol at pH 6.5 in the skin lotion set forth in Table 1 above was evaluated according to methods described in paragraphs the Challenge Testing Methodology section above, using the microbes identified in Example 1. Again, in this case, only 2-day and 14-day time points were measured.

For `OCc1ccccc1` [benzyl alcohol, reference compound], in assay [1] (2.5 wt. %), the “antimicrobial effectiveness over time” value was “unexpected antimicrobial effectiveness”.

Consider `OCCCc1ccccc1` [3-phenyl propanol], for which the “effectiveness against microbe strains compared to no antimicrobial” value is reported as “demonstrated the effectiveness” in assay [2] (pH 3, tryptic soy broth, up to 28 days) and “demonstrated the effectiveness” in assay [2] (pH 10, tryptic soy broth). Besides, the “concentration achieving passing efficacy according to EP criteria” value in assay [2] (pH 6.5) and in assay [2] (pH 8.0) was 1 wt. % in each case. Also, the “concentration achieving passing efficacy according to USP-51 criteria” value in assay [2] (pH 6.5) amounted to 0.5 wt. %; in assay [2] (pH 8.0), 0.25 wt. %. Besides, the “efficacy versus bacteria, yeast and mold” value is “efficacious versus bacteria, yeast and mold” in assay [2] (pH 6.5, various concentrations); “efficacious versus bacteria, yeast and mold” in assay [2] (pH 8.0, various concentrations). Also, the “addition of 3-phenyl propanol meeting the two-day criteria of the European Pharmacopeia” value in assay [3] (skin lotion pH 6.5 with 0.25 wt. % sodium benzoate and 0.25 wt. % benzyl alcohol) is listed as 0.35 wt. %. In assay [3] (skin lotion pH 6.5 with 0.25 wt. % sodium benzoate and 0.25 wt. % benzyl alcohol, after 14 days), the “effect of small concentrations on performance against E. coli and S. aureus versus control (0 wt. %)” value is listed as “significantly decreased performance”. Also, the “loading of 3-phenyl propanol achieving the required 14-day efficacy under European Pharmacopeia criteria” value in assay [3] (skin lotion pH 6.5 with 0.25 wt. % sodium benzoate and 0.25 wt. % benzyl alcohol, bacteria, mold and yeast) is listed as “approximately 0.35 wt. %”. In addition, the “3-phenyl propanol required to pass the EP 2 day and 14-day criteria” value in assay [3] (skin lotion pH 6.5 with 0.5 wt. % sodium benzoate) and in assay [3] (skin lotion pH 8.0 with 0.5 wt. % benzyl alcohol) was 0.5 wt. % each time.

Turning to `CC(CO)Cc1ccccc1` (stereo not drawn) [2-methyl-3-phenyl propanol], in assay [1] (0.5 wt. %), the “antimicrobial effectiveness over time” value was “unexpected antimicrobial effectiveness”.
